Columns and labels:
[1] = system: rat ventral mesencephalan neurons; assay: [3H]Dopamine Cell Culture Assay (6-OHDA neurotoxicity); format: cell-based; details: 6-OHDA 30 μM, uptake 22 hrs after exposure
Experimental: Cultures of dopaminergic neurons were prepared according to a modification of the procedure described by Raymon and Leslie (J. Neurochem. 62:1015-1024, 1994). Time-mated pregnant rats were sacrificed on embyronic day 14-15 (crown rump length 11-12 mm) and the embryos removed by cesarean section. The ventral mesencephalon, containing the dopaminergic neurons, was dissected from each embryo. Tissue pieces from approximately 48 embryos were pooled and dissociated both enzymatically and mechanically. An aliquot from the resulting cell suspension was counted and the cells were plated in high glucose DMEM/F12 culture medium with 10% fetal bovine serum at a density of 1×10^5 cells/well of a Biocoat poly-D-lysine-coated 96-well plate. The day following plating was considered 1 day in vitro (DIV). Cells were maintained in a stable environment at 37° C., 95% humidity, and 5% CO2. A partial medium change was performed at 3 DIV. […]
[^3H]Dopamine uptake is used as a measure of the health and integrity of dopaminergic neurons in culture (Prochiantz et al., PNAS 76: 5387-5391, 1979). […] Briefly, cells treated with 6-OHDA in the presence and absence of 5-amino-anthra(9,1-cd)isothiazol-6-one were assessed in the uptake assay 22 hrs after exposure to 6-OHDA. […] Radioactivity was removed and the cultures were washed 3× with ice cold PBS. […]

[2] = Brain-Blood Plasma Distribution In Vivo; parameters: species or system Sprague-Dawley rats; details: rat
Experimental: 5-Amino-anthra(9,1-cd)isothiazol-6-one was administered intravenously (10 mg/kg) into the veins of Sprague-Dawley rats. After 2 hr, blood samples were obtained from the animals and their vascular systems were perfused with approximately 100 mL of saline to rid their brains of blood. The brains were removed from the animals, weighed, and homogenized in a 50 mL conical tube containing 10 equivalents (w/v) of methanol/saline (1:1) using a Tissue Tearer (Fischer Scientific). The homogenized material was extracted by adding 600 μL of cold methanol to 250 μL of brain homogenate vortexed for 30 sec and subjected to centrifugation for 5 min. After centrifugation, 600 μL of the resulting supernatant was transferred to a clean tube and evaporated at room temperature under reduced pressure to provide a pellet. […] The brain homogenate analysis samples, plasma analysis samples, and standard analysis samples were analyzed and compared using HPLC by injecting 100 μL of a sample onto a 5 μm C-18 Luna column (4.6 mm×150 mm, commercially available from Phenomenex of Torrance, Calif.) and eluting at 1 mL/min with a linear gradient of 30% aqueous acetonitrile containing 0.1% trifluoroacetic acid to 90% aqueous acetonitrile containing 0.1% trifluoroacetic acid over 8 minutes and holding at 90% aqueous acetonitrile containing 0.1% trifluoroacetic acid for 3 min. with absorbance detection at 450 nm. […]

[3] = Solubility in aqueous media; format: physicochemical

brain-drug concentration ([2]; 10 mg/kg intravenously, 2 hr post-dose): approximately 65 nmole/g
solubility in aqueous media [3]: limited solubility
SMILES: Nc1ccc2snc3c2c1C(=O)c1ccccc1-3 [5-amino-anthra(9,1-cd)isothiazol-6-one]
protection of dopaminergic neurons ([3H]dopamine uptake) [1]: protects rat ventral mesencephalan neurons from the toxic effects of 6-OHDA
blood-brain barrier crossing ([2]; following intravenous administration): crosses the blood-brain barrier to a significant extent

— US20070270448A1, “Methods of Using and Compositions Comprising a Jnk Inhibitor for the Treatment and Management of Asbestos-Related Diseases and Disorders” (CELGENE CORPORATION, priority 2003, published 2007)
